Data on ten compounds can be found in BindingDB's records for doi:10.1016/s1074-5521(97)90198-8 (Massachusetts Institute of Technology, 1997).

The structures appear in SMILES notation.

As a reminder, the IC50 is the midpoint of a concentration-inhibition curve. Lower therefore signals higher potency.

Methionine aminopeptidase 2, sequence (P50579 whole entry): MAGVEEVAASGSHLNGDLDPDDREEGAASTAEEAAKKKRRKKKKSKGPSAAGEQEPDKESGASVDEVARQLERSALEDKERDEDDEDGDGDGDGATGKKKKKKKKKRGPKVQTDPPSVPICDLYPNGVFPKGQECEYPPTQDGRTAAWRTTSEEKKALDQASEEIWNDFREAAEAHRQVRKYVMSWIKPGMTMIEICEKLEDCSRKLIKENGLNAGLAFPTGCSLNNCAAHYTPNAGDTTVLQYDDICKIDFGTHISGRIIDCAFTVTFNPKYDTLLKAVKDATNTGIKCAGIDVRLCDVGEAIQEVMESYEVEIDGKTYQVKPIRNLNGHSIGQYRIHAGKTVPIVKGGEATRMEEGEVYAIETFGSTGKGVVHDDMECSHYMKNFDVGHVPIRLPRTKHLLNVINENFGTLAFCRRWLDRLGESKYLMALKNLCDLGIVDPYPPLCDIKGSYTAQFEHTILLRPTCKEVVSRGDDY

The target in the assay is Methionine aminopeptidase 2 (Homo sapiens, UniProt P50579). As to the kind of experiment: Enzymatic Assay. The following applies: pH 7.35; 37 °C. An excerpt:
Enzymatic assay using recombinant human type 2 methionine aminopeptidase (MetAP2).
`CO[C@H]1C([C@]2(C)OC2CC=C(C)C)[C@]2(CC[C@H]1OC(=O)CCCCl)CO2` (stereo not given in full) [FOS-70] displayed an IC50 of 3.5 nM.
In turn, `CO[C@H]1C([C@]2(C)OC2CC=C(C)C)[C@@](O)(SC)CC[C@H]1O` (stereo not given in full) [FOS-202] gave a half-inhibitory concentration (IC50) of 5000 nM.
Turning to `CO[C@@H]1C(=O)CC[C@]2(CO2)C1[C@]1(C)OC1CC=C(C)C` (stereo not given in full) [FOS-72], the IC50 came to 6 nM.
Next, `CO[C@@H]1[C@H](OC(=O)NC(=O)CCl)CC[C@]2(CO2)[C@@]1(O)[C@]1(C)OC1CC=C(C)C` (stereo not given in full) [FOS-68]: 2 nM; `CO[C@H]1C([C@]2(C)OC2CC=C(C)C)[C@]2(CC[C@H]1OC(=O)NC(=O)CCl)CO2` (stereo not given in full) [AGM-1470]: 1 nM.
On to `CO[C@@H]1[C@H](O)CC[C@](O)(SC)[C@@]1(O)[C@]1(C)OC1CC=C(C)C` (stereo not given in full) [FOS-201], for which the IC50 came out at 45 nM.
The value for `CO[C@@H]1[C@H](OC(=O)CCCCl)CC[C@]2(CO2)[C@@]1(O)[C@]1(C)OC1CC=C(C)C` (stereo not given in full) [FOS-69] was 0.1 nM.
Take `CO[C@H]1C([C@]2(C)OC2CC=C(C)C)[C@]2(CC[C@H]1O)CO2` (stereo not given in full) [FOS-37]: the IC50 stood at 8 nM.
The value for `CO[C@@H]1[C@H](O)CC[C@]2(CO2)[C@@]1(O)[C@]1(C)OC1CC=C(C)C` (stereo not given in full) [FOS-34] was 4 nM; that for `CO[C@H]1C([C@]2(C)OC2CC=C(C)C)[C@@](O)(SC)CC[C@H]1OC(=O)NC(=O)CCl` (stereo not given in full) [FOS-64] was 3000 nM.
